Measurements taken from patent US9532994B2, “Agents and methods for enhancing bone formation by oxysterols in combination with bone morphogenic proteins” (THE REGENTS OF THE UNIVERSITY OF CALIFORNIA, priority 2003, dated 2017).

How the values were obtained:
[1] = tested on: M2-10B4 mouse marrow stromal cell line; assay: Alkaline phosphatase (ALP) activity assay in M2 cells; format: cell-based; settings: for induction of alkaline phosphatase activity: 10 μM oxysterols, osteogenic medium, 3 days (FIG. 3A); for dose- and time-dependence of induction of alkaline phosphatase activity: concentrations between 0.5-10 μM; for alkaline phosphatase activity: ligands used at 10 μM, ±SD, control vehicle C: 18±2, p<0.01 for C vs. all ligands
Procedure: Cells: M2-10B4 mouse marrow stromal cell line obtained from American Type Culture Collection (ATCC, Rockville, Md., U.S.A.) was derived from bone marrow stromal cells of a (C57BL/6J×C3H/HeJ) F1 mouse, and support human and murine myelopoiesis in long-term cultures (as per ATCC) and have the ability to differentiate into osteoblastic and adipocytic cells. Unless specified, these cells were cultured in RPMI 1640 containing 10% heat-inactivated FBS, and supplemented with 1 mM sodium pyruvate, 100 U/ml penicillin, and 100 […] (all from Irvine Scientific).
Alkaline phosphatase activity assay: Colorimetric alkaline phosphatase (ALP) activity assay on whole cell extracts was performed as previously described. […]
Test 2: M2 cells were grown in RPMI medium containing 10% fetal bovine serum (FBS). At confluence, the cells were treated in RPMI containing 5% FBS plus ascorbate at 50 μg/ml and β-glycerophosphate at 3 mM to induce osteoblastic differentiation. Adipogenic differentiation was induced by treating the cells in growth medium plus 10 ˜M troglitazone. A vehicle (C) or oxysterol treatment was applied to cells in a variety of doses (in μM): 20S-Hydroxycholesterol, 25-Hydroxycholesterol, 22R-Hydroxycholesterol; 22S-Hydroxycholesterol; 7-ketocholesterol. Cells were always treated at 90% confluence. After 4 days, alkaline phosphatase activity was determined in whole cell lysates and normalized to protein. Alternatively, MSC cultures were prepared and treated with oxysterols as described above. Cells were treated at 90% confluence with the combination of 22R-Hydroxycholesterol and 20S-Hydroxycholesterol, each at 5 μM, for 4 to 96 hours. The oxysterols where removed and fresh media without oxysterols was added for a total duration of 96 hours. Alkaline phosphatase activity was measured in whole cell extracts and normalized to protein.
M2 cells were treated at 90% confluence with vehicle (C), or oxysterols 20S-Hydroxycholesterol or 22S-Hydroxycholesterol at (0.5 μM) or (1 μM), in the absence or presence of cytochrome P450 inhibitor (SKF525A 10 μM (+)). MSC cultures were also treated at 90% confluence with vehicle (C), or 20S-Hydroxycholesterol (2 μM), in the absence or presence of cytochrome P450 […] (Benzylimidazole 50 μM) or SKF525A (10 μM). After 4 days, alkaline phosphatase activity was measured in whole cell extracts and normalized to protein. […]

[2] = tested on: M2 cells; assay: Adipogenesis of M2 cells, oil Red O staining and adipocyte count; format: cell-based, mouse; settings: 10 μM Tro, 10 μM oxysterols, alone or in combination, 10 days (FIG. 7)
Procedure: Von Kossa and oil red O staining—Matrix mineralization in cell monolayers was detected by silver nitrate staining as previously described. Oil red O staining for detection of adipocytes was performed as previously described.
Test 1: M2 cells at 90% confluence were treated with vehicle (C), PPAR-γ activator, troglitazone 10 uM (Tro), alone or in combination with 10 μM oxysterols 20S-, 22R-, or 25S-hydroxycholesterol. After 8 days, adipocytes were identified by oil Red O staining and quantified by counting under a phase contrast microscope. FIG. 6A is a bar graph depicting the effect of oxysterols on reducing adipogenesis of MSC.
Test 2: (A) M2 cells at confluence were treated in RPMI containing 10% FBS with control vehicle or 10 μM troglitazone (Tro) in the absence or presence of 10 μM 20S or 22S oxysterols. After 10 days, adipocytes were visualized by oil Red O staining and quantified by light microscopy, shown in (B). Data from a representative of four experiments are shown, reported as the mean SD of quadruplicate determinations (p<0.001 for Tro vs. Tro+20S and Tro+22S). (C) M2 cells were treated at confluence with 10 μM Tro, alone or in combination with 10 μM 20S oxysterol. After 10 days, total RNA was isolated and analyzed for lipoprotein lipase (LPL), adipocyte P2 gene (aP2) or 18S rRNA expression by Northern blotting as described (Ref). Data from densitometric analysis of the Northern blot is shown in (D) as the average of duplicate samples, normalized to 18S rRNA.

[3] = tested on: osteocalcin mRNA in M2 cells; assay: Northern blotting for osteocalcin mRNA in M2 cells; format: cell-based, mouse; settings: 0.5-10 μM, as many as 14 days, data not shown
Procedure: The extent of gene induction was determined by densitometry.
After 4 and 8 days, total RNA from duplicate samples was isolated and analyzed for osteocalcin (Osc) and 28S rRNA expression by Northern blotting as described. FIG. 3E is a radiogram of Northern blotting for osteocalcin mRNA in M2 cells exposed to a control or combination of oxysterols for 4 or 8 days. FIG. 3F is a bar graph depicting the relative demsometric units of osteocalcin mRNA in M2 cells exposed to a control or combination of oxysterols for 4 or 8 days. Data from densitometric analysis of the Northern blot is shown in (F) as the average of duplicate samples, normalized to 28S rRNA.
Next, a combination of 22R and 20S oxysterols (RS, 2.5 μM each) were added in the presence or absence of SC as indicated. After 3 days, ALP activity was measured as described earlier. […] (B) M2 cells were treated as described in (A) and after 10 days matrix mineralization in cultures was quantified by a ^45Ca incorporation assay as described earlier. Results from a representative of three experiments are shown, reported as the mean±SD of quadruplicate determinations, normalized to protein concentration. (C) M2 cells were pretreated with 20 μM SC for 4 hours, followed by the addition of RS in the presence or absence of SC as described above. After 8 days, total RNA was isolated and analyzed for osteocalcin (Osc) and 18S rRNA expression by Northern blotting as previously described. Data from densitometric analysis of the Northern blot is shown in (D) as the average of duplicate samples, normalized to 18S rRNA. (E) M2 cells at confluence were pretreated for 2 hours with control vehicle (C), or PLA2 inhibitors ACA (25 μM) and MCOCF3 (MC, 20 μM), in osteogenic medium. Next, a combination of 22R and 20S oxysterols (RS, 2.5 μM) was added in the presence or absence of the inhibitors as indicated. After 3 days, ALP activity was measured as previously described. Data from a representative of three experiments are shown, reported as the mean±SD of quadruplicate determinations, normalized to protein concentration (p<0.01 for RS vs. RS+ACA and RS+MC). (F) M2 cells were treated as described in (E).

| SMILES | induction of alkaline phosphatase activity [1] | dose- and time-dependence of induction of alkaline phosphatase activity [1] | alkaline phosphatase activity [1] [activity units/mg protein] | adipogenesis induced by troglitazone [2] | induction of osteocalcin gene expression, individual oxysterols [3] |
| --- | --- | --- | --- | --- | --- |
| CC(C)CC[C@@H](O)[C@@H](C)[C@H]1CC[C@H]2[C@@H]3CC=C4C[C@@H](O)CC[C@]4(C)[C@H]3CC[C@]12C [22R, 22(R)-hydroxycholesterol] | induced | dose- and time-dependent | 45±5 | inhibited adipogenesis | unable to induce |
| CC(C)CC[C@H](O)[C@@H](C)[C@H]1CC[C@H]2[C@@H]3CC=C4C[C@@H](O)CC[C@]4(C)[C@H]3CC[C@]12C [22S, 22(S)-hydroxycholesterol] | induced | dose- and time-dependent |  | inhibited adipogenesis | unable to induce |
| CC(C)CCC[C@](C)(O)[C@H]1CC[C@H]2[C@@H]3CC=C4C[C@@H](O)CC[C@]4(C)[C@H]3CC[C@@]21C [20S, 20(S)-hydroxycholesterol] | induced | dose- and time-dependent | 140±12 | inhibited adipogenesis | unable to induce |
